Data published in the supplement of paper PMC8253809.

Legend:
DIPGX37 [1] = H3.3 K27M diffuse intrinsic pontine glioma line; experiment: EC50 (inflection of fitted growth-inhibition curve) (log10 M)
In short: (§1)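 Compounds were delivered by pin tool as a 10-point threefold dilution series with a mean top concentration of 35 μM, in triplicate, to patient-derived pHGG/DIPG cell lines and astrocyte controls growing on 1% Geltrex-coated 384-well plates. Incubation lasted 7 days, or 3 days for iAstro, at 37 °C with 5% CO2. EC50 and maximal response (yFin) come from the three- or four-parameter log-logistic fit with the lowest AICc, applied to pooled, log2-transformed CellTiter-Glo luminescence normalised per plate to % activity between solvent (negative) and positive control wells.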

iAstro [2] = astrocyte control; experiment: as above
In short: as §1

DIPGX7 [3] = H3.3 K27M diffuse intrinsic pontine glioma line; experiment: as above
In short: as §1

SUDIPGXXI [4] = diffuse intrinsic pontine glioma line; experiment: as above
In short: as §1

DIPGX29 [5] = H3.3 K27M diffuse intrinsic pontine glioma line; experiment: as above
In short: as §1

HGGX42 [6] = H3.3 G34R paediatric high-grade glioma line; experiment: as above
In short: as §1

DIPGX37 [7] = experiment: maximal growth inhibition (yFin) relative to DMSO / staurosporine; higher = more efficacious
In short: as §1

iAstro [8] = experiment: as above
In short: as §1

DIPGX7 [9] = experiment: as above
In short: as §1

SUDIPGXXI [10] = experiment: as above
In short: as §1

DIPGX29 [11] = experiment: as above
In short: as §1

HGGX42 [12] = experiment: as above
In short: as §1

DIPGX37 [13] = experiment: area under dose-response curve of % growth inhibition (log2 RLU vs DMSO / staurosporine), 1e-11 to 1e-4 M (% x log10 M); higher = more growth inhibition
In short: (§2)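 Area under the curve was derived with the trapezoid rule from a fitted log-logistic curve, switching to a smoothing spline if the sigmoid fit failed. It rested on per-plate % activity between solvent and positive controls, calculated from log2-transformed CellTiter-Glo luminescence after 7 days of exposure (3 days for iAstro) at 37 °C, 5% CO2. Patient-derived pHGG/DIPG lines and astrocytes on 1% Geltrex-coated 384-well plates received a 10-point threefold dilution series, mean top concentration 35 μM, in triplicate.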

HGGX39 [14] = paediatric high-grade glioma line; experiment: as above
In short: as §2

SUDIPGXVII [15] = diffuse intrinsic pontine glioma line; experiment: as above
In short: as §2

SUDIPGXIII = diffuse intrinsic pontine glioma line; experiment: as above
In short: as §2

iAstro [16] = experiment: as above
In short: as §2

DIPGX7 [17] = experiment: as above
In short: as §2

SUDIPGXXI [18] = experiment: as above
In short: as §2

SUDIPGXIX [19] = diffuse intrinsic pontine glioma line; experiment: as above
In short: as §2

DIPGX29 [20] = experiment: as above
In short: as §2

HGGX6 [21] = H3.3 G34R paediatric high-grade glioma line; experiment: as above
In short: as §2

SUDIPGVI = diffuse intrinsic pontine glioma line; experiment: as above
In short: as §2

DIPGX9 [22] = diffuse intrinsic pontine glioma line; experiment: as above
In short: as §2

HGGX42 [23] = experiment: as above
In short: as §2

HGGX2 [24] = paediatric high-grade glioma line; experiment: as above
In short: as §2

HABS [25] = astrocyte control; experiment: as above
In short: as §2

SUDIPGIV [26] = diffuse intrinsic pontine glioma line; experiment: as above
In short: as §2

HGGX39 [27] = experiment: EC50 (inflection of fitted growth-inhibition curve) (log10 M)
In short: as §1

SUDIPGXVII [28] = experiment: as above
In short: as §1

SUDIPGXIX [29] = experiment: as above
In short: as §1

DIPGX9 [30] = experiment: as above
In short: as §1

HGGX2 [31] = experiment: as above
In short: as §1

HABS [32] = experiment: as above
In short: as §1

SUDIPGIV [33] = experiment: as above
In short: as §1

HGGX39 [34] = experiment: maximal growth inhibition (yFin) relative to DMSO / staurosporine; higher = more efficacious
In short: as §1

SUDIPGXVII [35] = experiment: as above
In short: as §1

SUDIPGXIX [36] = experiment: as above
In short: as §1

DIPGX9 [37] = experiment: as above
In short: as §1

HGGX2 [38] = experiment: as above
In short: as §1

HABS [39] = experiment: as above
In short: as §1

SUDIPGIV [40] = experiment: as above
In short: as §1

HGGX6 [41] = experiment: EC50 (inflection of fitted growth-inhibition curve) (log10 M)
In short: as §1

HGGX6 [42] = experiment: maximal growth inhibition (yFin) relative to DMSO / staurosporine; higher = more efficacious
In short: as §1

Row | SMILES | EC50 (log10 M) (iAstro [2]) | EC50 (log10 M) (SUDIPGXXI [4]) | EC50 (log10 M) (DIPGX29 [5]) | maximal growth inhibition (iAstro [8]) | maximal growth inhibition (SUDIPGXXI [10]) | area under dose-response curve (DIPGX37 [13]) | area under dose-response curve (HGGX39 [14]) | area under dose-response curve (SUDIPGXVII [15]) | area under dose-response curve (SUDIPGXIII) | area under dose-response curve (iAstro [16]) | area under dose-response curve (DIPGX7 [17]) | area under dose-response curve (SUDIPGXXI [18]) | area under dose-response curve (SUDIPGXIX [19]) | area under dose-response curve (DIPGX29 [20]) | area under dose-response curve (HGGX6 [21]) | area under dose-response curve (SUDIPGVI) | area under dose-response curve (DIPGX9 [22]) | area under dose-response curve (HGGX42 [23]) | area under dose-response curve (HABS [25]) | area under dose-response curve (SUDIPGIV [26]) | further results
1 | Fc1ccc(N2CCN(CCC3OCCc4ccccc43)CC2)cc1 (stereo not drawn) | -5.03 | -5.02 | -5.02 | 23.3% | 57.5% | 33.4 | 18.1 | 8.36 | 13.4 | 24 | 37.3 | 87.1 | 0 | 27.2 | 14.9 | 12.8 | 13.4 | 37.8 | 1.16 | 15.7 | EC50 (log10 M) (DIPGX37 [1]): -4.97; EC50 (log10 M) (DIPGX7 [3]): -4.91; EC50 (log10 M) (HGGX42 [6]): -4.98; maximal growth inhibition (DIPGX37 [7]): 34.9%; maximal growth inhibition (DIPGX7 [9]): 40.7%; maximal growth inhibition (DIPGX29 [11]): 26.6%; maximal growth inhibition (HGGX42 [12]): 38.6%; area under dose-response curve (HGGX2 [24]): 15.4
2 | O=C1NC(=O)C(c2cnc3ccccn23)=C1c1cn2c3c(cc(F)cc13)CN(C(=O)N1CCCCC1)CC2 | -5.34 | -6.42 | -4.49 | 45.8% | 112% | 24.1 | 70.9 | 16.9 | 6.37 | 66.3 | 6.78 | 277 | 37 | 42 | 30.8 | 6.26 | 64 | 72.1 | 199 | 300 | EC50 (log10 M) (DIPGX37 [1]): -4.48; EC50 (log10 M) (HGGX39 [27]): -6.42; EC50 (log10 M) (SUDIPGXVII [28]): -4.97; EC50 (log10 M) (SUDIPGXIX [29]): -5.7; EC50 (log10 M) (DIPGX9 [30]): -4.66; EC50 (log10 M) (HGGX42 [6]): -5.13; EC50 (log10 M) (HGGX2 [31]): -4.66; EC50 (log10 M) (HABS [32]): -7.93; EC50 (log10 M) (SUDIPGIV [33]): -8.3; maximal growth inhibition (DIPGX37 [7]): 52.1%; maximal growth inhibition (HGGX39 [34]): 35.2%; maximal growth inhibition (SUDIPGXVII [35]): 22.3%; maximal growth inhibition (SUDIPGXIX [36]): 24.1%; maximal growth inhibition (DIPGX29 [11]): 49.3%; maximal growth inhibition (DIPGX9 [37]): 97.2%; maximal growth inhibition (HGGX42 [12]): 60.7%; maximal growth inhibition (HGGX2 [38]): 40.7%; maximal growth inhibition (HABS [39]): 50.7%; maximal growth inhibition (SUDIPGIV [40]): 69.8%; area under dose-response curve (HGGX2 [24]): 27
3 | Cc1nc(Nc2ncc(C(=O)Nc3c(C)cccc3Cl)s2)cc(N2CCN(CCO)CC2)n1 [DASATINIB] | -4.82 | -4.85 |  | 34.9% | 110% | 39.6 | 77.5 | 22 | 16.1 | 27.6 | 26.2 | 109 | 51.9 | 54.9 | 61.1 | 12 | 80 | 83.4 | 143 | 60.9 | EC50 (log10 M) (HGGX39 [27]): -5.3; EC50 (log10 M) (DIPGX7 [3]): -4.59; EC50 (log10 M) (SUDIPGXIX [29]): -4.77; EC50 (log10 M) (DIPGX9 [30]): -4.85; maximal growth inhibition (HGGX39 [34]): 41.3%; maximal growth inhibition (DIPGX7 [9]): 28.2%; maximal growth inhibition (SUDIPGXIX [36]): 50.4%; maximal growth inhibition (DIPGX9 [37]): 64.4%
4 | C#Cc1cccc(Nc2ncnc3cc(OCCOC)c(OCCOC)cc23)c1 [ERLOTINIB] | -5.17 | -5.65 | -4.82 | 27.5% | 103% | 51.3 | 34.2 | 44.5 | 9.16 | 29.7 | 44.7 | 178 | 78.6 | 28.1 | 22.9 | 33.8 | 68.4 | 50 | 86.4 | 53 | EC50 (log10 M) (HGGX39 [27]): -4.77; EC50 (log10 M) (SUDIPGXVII [28]): -5.32; EC50 (log10 M) (SUDIPGXIX [29]): -5.24; EC50 (log10 M) (HGGX6 [41]): -4.65; EC50 (log10 M) (DIPGX9 [30]): -5.14; EC50 (log10 M) (HGGX42 [6]): -5.09; EC50 (log10 M) (HGGX2 [31]): -5.13; EC50 (log10 M) (HABS [32]): -4.84; maximal growth inhibition (HGGX39 [34]): 40.4%; maximal growth inhibition (SUDIPGXVII [35]): 25.8%; maximal growth inhibition (SUDIPGXIX [36]): 62.6%; maximal growth inhibition (DIPGX29 [11]): 25.7%; maximal growth inhibition (HGGX6 [42]): 30.5%; maximal growth inhibition (DIPGX9 [37]): 53.6%; maximal growth inhibition (HGGX42 [12]): 31.5%; maximal growth inhibition (HGGX2 [38]): 32.7%; maximal growth inhibition (HABS [39]): 80.2%; area under dose-response curve (HGGX2 [24]): 37.1
